The target in assay [1] is T1, High affinity choline transporter 1 (Homo sapiens, UniProt Q9GZV3).
T1 sequence (Q9GZV3 whole entry): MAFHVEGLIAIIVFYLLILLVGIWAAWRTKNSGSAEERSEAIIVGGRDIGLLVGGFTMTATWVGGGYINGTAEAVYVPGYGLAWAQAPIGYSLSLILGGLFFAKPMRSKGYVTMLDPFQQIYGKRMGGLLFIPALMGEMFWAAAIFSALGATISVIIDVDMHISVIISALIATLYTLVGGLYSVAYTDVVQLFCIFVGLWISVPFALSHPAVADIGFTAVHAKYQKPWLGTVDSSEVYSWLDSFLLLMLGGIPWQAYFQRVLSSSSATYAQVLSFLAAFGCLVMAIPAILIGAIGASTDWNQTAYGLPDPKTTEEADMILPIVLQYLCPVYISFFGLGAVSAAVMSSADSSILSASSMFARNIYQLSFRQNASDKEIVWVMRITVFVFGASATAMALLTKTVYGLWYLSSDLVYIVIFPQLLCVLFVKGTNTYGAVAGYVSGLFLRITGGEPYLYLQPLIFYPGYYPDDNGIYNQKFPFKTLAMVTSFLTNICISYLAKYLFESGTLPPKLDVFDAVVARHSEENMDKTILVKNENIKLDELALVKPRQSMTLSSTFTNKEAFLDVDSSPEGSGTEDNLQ
Put plainly: human choline transporter blockers, potency – cell-based, 5-point CRC, membrane potential dye, dose response (AID 504840). In kind it is functional.

Assay [2] has as its target T2, Heat shock factor protein 1 (Mus musculus, UniProt P38532).
T2 sequence (P38532 whole entry): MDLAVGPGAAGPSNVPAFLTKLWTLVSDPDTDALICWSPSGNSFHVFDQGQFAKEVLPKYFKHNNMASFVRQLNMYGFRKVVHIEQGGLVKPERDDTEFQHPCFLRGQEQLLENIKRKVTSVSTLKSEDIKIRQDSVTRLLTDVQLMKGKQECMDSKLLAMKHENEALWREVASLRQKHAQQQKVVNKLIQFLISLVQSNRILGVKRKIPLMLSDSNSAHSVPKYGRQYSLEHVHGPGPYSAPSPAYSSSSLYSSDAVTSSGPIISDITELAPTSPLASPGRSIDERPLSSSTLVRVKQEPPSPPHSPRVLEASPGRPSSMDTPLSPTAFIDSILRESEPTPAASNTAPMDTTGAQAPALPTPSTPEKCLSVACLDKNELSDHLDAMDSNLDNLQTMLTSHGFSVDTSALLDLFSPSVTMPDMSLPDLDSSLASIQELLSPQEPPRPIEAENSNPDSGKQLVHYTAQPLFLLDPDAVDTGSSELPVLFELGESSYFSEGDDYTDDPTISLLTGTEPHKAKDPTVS
Put plainly: decrease of HSF1-responsive luciferase luminescence – cell-based, NIH3T3, dose retest, confirmation (AID 2382).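 Note: NIH3T3 fibroblasts with HSF1-driven luciferase reporter stressed by proteasome inhibitor MG132; luminescence from HSF1-driven luciferase expression after 8 hours of MG132 stress.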 In kind it is functional.

For assay [3], the target named is FAD-linked sulfhydryl oxidase ALR (Homo sapiens, UniProt P55789). Put plainly: ALR-catalysed DTT oxidation blockers – biochemical, H2O2 detection, luminescence, cherry-pick, dose response (AID 493248).
FAD-linked sulfhydryl oxidase ALR, sequence (P55789 whole entry): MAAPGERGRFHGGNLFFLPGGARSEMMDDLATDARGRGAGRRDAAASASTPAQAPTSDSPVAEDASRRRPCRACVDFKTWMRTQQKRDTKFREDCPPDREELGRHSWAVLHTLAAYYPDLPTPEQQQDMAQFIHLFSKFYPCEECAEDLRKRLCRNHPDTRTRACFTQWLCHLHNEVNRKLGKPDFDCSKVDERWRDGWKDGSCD
Assay [4] addresses T3, Rac GTPase-activating protein 1 (Homo sapiens, UniProt Q9H0H5).
T3 sequence (Q9H0H5 whole entry): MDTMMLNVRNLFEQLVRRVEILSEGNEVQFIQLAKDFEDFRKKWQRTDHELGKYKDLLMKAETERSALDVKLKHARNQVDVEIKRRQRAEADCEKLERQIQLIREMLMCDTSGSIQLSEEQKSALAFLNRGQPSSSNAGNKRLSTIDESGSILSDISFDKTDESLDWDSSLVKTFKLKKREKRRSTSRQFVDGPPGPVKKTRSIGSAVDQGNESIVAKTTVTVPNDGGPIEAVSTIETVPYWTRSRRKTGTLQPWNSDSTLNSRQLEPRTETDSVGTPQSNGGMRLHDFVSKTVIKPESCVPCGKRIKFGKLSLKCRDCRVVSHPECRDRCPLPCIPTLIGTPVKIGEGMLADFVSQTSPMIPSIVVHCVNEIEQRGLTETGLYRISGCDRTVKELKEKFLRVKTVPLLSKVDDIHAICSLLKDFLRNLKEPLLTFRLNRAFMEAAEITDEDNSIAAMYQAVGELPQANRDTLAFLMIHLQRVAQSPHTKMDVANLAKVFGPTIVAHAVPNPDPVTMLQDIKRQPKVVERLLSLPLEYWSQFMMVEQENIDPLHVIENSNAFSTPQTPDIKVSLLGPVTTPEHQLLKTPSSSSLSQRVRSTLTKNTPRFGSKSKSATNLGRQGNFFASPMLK
Put plainly: blockers of MgcRacGAP-driven Rac1 GTP hydrolysis – biochemical, ADP Hunter fluorescence, primary and confirmatory, confirmation (AID 624330). It is filed as functional.

Assay [5] in a line: luciferase reporter signal suppression in cells – H4 neuroglioma cells, luminescence, dose response (AID 1990). It is filed as functional, cell-based. In general terms: Reporter assays use an easily measured gene product as a stand-in for the process of interest.
A short description of assay [6]: alpha-synuclein stem-loop luciferase translation blockers – H4 neuroglioma cells, luminescence, confirmation (AID 1988). In kind it is functional, cell-based.
Assay [7] in a line: blockers of HIV-1 envelope-mediated cell-cell fusion – cherry-pick, dose response (AID 652057). In kind it is functional, cell-based.
A short description of assay [8]: blockers of HIV-1 ZM109 envelope-driven cell-cell fusion – HeLa effector, CEM target cells, luciferase, cherry-pick, dose response (AID 652058).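 Note: luciferase signal from HIV-1 Env mediated cell-cell fusion of effector and target cells.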 In kind it is functional, cell-based.
The nature of assay [9]: off-target signal loss in HeLa-CEM21 co-culture – HeLa F-luc CTL cells, cherry-picked, counter-screen for HIV-1 Env fusion inhibitor project, dose response (AID 652040).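 Note: potency for signal decrease marking cytotoxic or nonspecific inhibition.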 In kind it is functional, cell-based.
Assay [10] in a line: HIV-1 AD8 envelope cell-cell fusion blockers – cherry-pick, dose response (AID 652062).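 Note: luciferase signal from cell-cell fusion driven by HIV-1 clade B AD8 Env; potency is for inhibitors of fusion seen as a drop in luminescence.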 It is filed as functional, cell-based.
The target in a further assay is T4, Protein skinhead-1 (Caenorhabditis elegans, UniProt P34707).
T4 sequence (P34707 whole entry): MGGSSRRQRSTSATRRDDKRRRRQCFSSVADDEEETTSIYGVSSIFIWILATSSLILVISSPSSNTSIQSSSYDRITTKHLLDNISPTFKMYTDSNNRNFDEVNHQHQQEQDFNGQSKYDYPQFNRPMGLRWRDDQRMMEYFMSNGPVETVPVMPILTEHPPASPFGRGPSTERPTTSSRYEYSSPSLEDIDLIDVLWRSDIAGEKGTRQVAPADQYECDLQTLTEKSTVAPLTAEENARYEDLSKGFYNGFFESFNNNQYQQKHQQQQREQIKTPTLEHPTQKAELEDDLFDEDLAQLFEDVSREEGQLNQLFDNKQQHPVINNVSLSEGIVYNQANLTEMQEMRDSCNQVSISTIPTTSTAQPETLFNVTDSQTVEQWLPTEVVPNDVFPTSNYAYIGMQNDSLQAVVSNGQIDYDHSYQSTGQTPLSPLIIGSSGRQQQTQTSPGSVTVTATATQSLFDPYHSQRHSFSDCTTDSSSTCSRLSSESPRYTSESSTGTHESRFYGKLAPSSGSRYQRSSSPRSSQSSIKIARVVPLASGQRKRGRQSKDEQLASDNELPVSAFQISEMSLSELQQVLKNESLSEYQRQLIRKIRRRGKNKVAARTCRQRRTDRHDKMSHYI
It is filed as functional.

Another assay addresses Large T antigen (Simian virus 40, UniProt P03070). It is filed as functional, Betapolyomavirus macacae.
For a further assay, the system named is P388/ADR. Put plainly: cells. It is filed as functional. The settings on record: Mus musculus.
For another assay, the system named is SN12K1. Put plainly: cells. In kind it is functional. The settings on record: Homo sapiens.
The subject of a further assay is P388. Put plainly: cells. It is filed as functional. The note with it: Mus musculus.

The source made the active and inactive calls.

Large T antigen, sequence (P03070 whole entry): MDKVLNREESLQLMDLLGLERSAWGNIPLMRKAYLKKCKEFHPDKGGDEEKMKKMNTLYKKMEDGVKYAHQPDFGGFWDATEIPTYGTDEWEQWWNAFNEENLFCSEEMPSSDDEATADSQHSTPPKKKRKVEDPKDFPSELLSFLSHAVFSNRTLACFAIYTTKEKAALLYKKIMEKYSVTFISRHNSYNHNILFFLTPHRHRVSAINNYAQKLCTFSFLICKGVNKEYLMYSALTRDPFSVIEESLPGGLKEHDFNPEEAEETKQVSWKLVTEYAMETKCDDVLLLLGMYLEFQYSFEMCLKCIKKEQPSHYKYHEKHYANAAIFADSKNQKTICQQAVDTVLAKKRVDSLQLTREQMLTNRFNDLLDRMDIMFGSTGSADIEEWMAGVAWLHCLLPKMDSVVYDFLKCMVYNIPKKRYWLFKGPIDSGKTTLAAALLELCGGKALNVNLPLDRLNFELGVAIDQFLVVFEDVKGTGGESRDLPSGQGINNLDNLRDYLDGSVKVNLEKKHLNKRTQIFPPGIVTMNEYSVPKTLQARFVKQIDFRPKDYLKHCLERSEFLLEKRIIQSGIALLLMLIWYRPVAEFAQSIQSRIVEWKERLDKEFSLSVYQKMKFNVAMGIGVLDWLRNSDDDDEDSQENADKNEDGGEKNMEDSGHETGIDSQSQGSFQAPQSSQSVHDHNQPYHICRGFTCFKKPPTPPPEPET

For orientation: IC50 means the midpoint of a concentration-inhibition curve. Take `COc1ccc(C(=O)N(C)Cc2ccc(C)o2)cc1OC1CCN(C(C)C)CC1`: the concentration for half-maximal inhibition (IC50) in [1] was 12.6 µM (active).

The EC50 is the concentration at which the effect is half-maximal. In the case of `O=C(Nc1ccc(F)c(Cl)c1)C1CCN(S(=O)(=O)c2cccnc2)CC1`, the EC50 in assay [2] is > 195 µM (not active). In addition, the IC50 in assay [1] is 13.2 µM (active).

In general, AC50 refers to the midpoint of the concentration-response curve, whichever way the signal moves. As to `CCN(CC)c1ccc(NC(=O)CNCc2ccccc2Cl)c(C)c1`, the AC50 in assay [3] is 1.61 µM (active). For the same compound, the IC50 was 20.9 µM (active) in [1] and 31 µM (active) in assay [4].

As to `COc1ccc(C(=O)C(C)N(C(=O)c2ccc(Cl)cc2Cl)N2C(=O)C3C4C=CC(C4)C3C2=O)cc1` (centres undefined), the results for the EC50 in assay [5] and in assay [6] were 16.7 µM (active) and > 120 µM (not active), respectively. Moreover, the AC50 was 2.94 µM (active) in assay [7], 2.82 µM (active) in assay [8], 4.93 µM (active) in assay [9] and 13.1 µM (active) in [10].

`Cc1cc(C)c2nc(C(F)(F)F)nc(N3CCN(C(=O)c4ccco4)CC3)c2c1`: the IC50 on Protein skinhead-1 is > 100 µM (inactive). Also, the AC50 in [7] was 31.2 µM (active); in assay [8], 1.22 µM (active); in assay [9] it was 21.9 µM (active); in assay [10] it was 25.7 µM (active).

As for `CC[C@@]12C(=O)N(c3ccccc3)C(=O)N1[C@H](c1ccc(OC)cc1)[C@@H]1C(=O)N(C(C)(C)C)C(=O)[C@@H]12`, the AC50 in [7] is 1.22 µM (active); in [8], 1.67 µM (active); in assay [9] it was 2.68 µM (active); in [10], 3.89 µM (active).

On to `CN(C)c1ccc(C(=O)c2ccc(O)cc2O)cc1`, for which the IC50 in assay [1] was 11 µM (active).

Take `O=C1NC(=O)N(c2ccc(Cl)cc2)C(=O)/C1=C/c1coc2ccc(O)cc2c1=O`: the IC50 on Large T antigen was > 100 µM (active); in [1], 12.7 µM (active).

For `CCC1(C)Cc2c(sc3nnn(CC(=O)Nc4ccccc4)c(=O)c23)CO1` (centres undefined), the IC50 in [1] was 11.5 µM (active).

As usually defined, the GI50 is the concentration at which growth is held to half of that of the control. As for `COc1cccc2c1C(=O)c1c(O)c3c(c(O)c1C2=O)C[C@@](O)(C(C)=O)C[C@@H]3OC1CC(N)C(O)C(C)O1` (some centres undefined), the GI50 in the assay with P388/ADR is 1.23 µM (inactive); with SN12K1, 0.069 µM (active); in the assay on P388 it was 0.076 µM (active).

On to `CCCn1c2ccccc2c2cnn(CC(=O)NCCN(C)C)c(=O)c21`, for which the IC50 in assay [1] is 11.5 µM (active).

Turning to `Cc1ccc(N(O)C(C)(C)C)cc1`, the figures for the GI50 in the assay on P388/ADR, in the assay with SN12K1 and in the assay on P388 were 24.8 µM (inactive), > 100 µM (inactive) and > 52.1 µM (inactive), respectively.

Take `C/C(=N\NC(=S)N1CCN(c2ccccn2)CC1)c1ncccn1`: the GI50 is 0.00356 µM (active) with P388/ADR, 0.007 µM (active) in the assay with SN12K1 and 0.00326 µM (active) in the assay on P388.

Turning to `O=C1N[C@@H]([C@H]2CC[C@H](Cl)CN2)C(=O)N[C@H]1[C@H]1CC[C@H](Cl)CN1`, the concentration for 50% growth inhibition (GI50) in the assay on P388/ADR is 0.318 µM (active); with SN12K1, 1.02 µM (active); in the assay on P388, 0.327 µM (active).

As for `O=[N+]([O-])c1cc2ncc(-c3ccccc3)c(O)c2cc1/C(Cl)=C/c1ccccc1`, the values for the GI50 with P388/ADR, in the assay on SN12K1 and in the assay with P388 were 4.53 µM (inactive), 9.08 µM (inactive) and 7.35 µM (inactive), respectively.

As for `CC(=O)/C=C/c1c[nH]c(=O)[nH]c1=O`, the GI50 is 148 µM (inactive) in the assay on P388/ADR, 121 µM (inactive) in the assay on SN12K1 and 164 µM (inactive) in the assay with P388.

As to `NC(=O)NN=C(CS)CS`, the GI50 is 29.2 µM (inactive) with P388/ADR, 18.7 µM (inactive) in the assay on SN12K1 and 19.1 µM (inactive) in the assay on P388.

Consider `O=C(NCCCCCCNC(=O)n1cc(F)c(=O)[nH]c1=O)NCCCOCCOCCCNC(=O)C(O)C(O)C(O)C(O)CO` (centres undefined), for which the GI50 is 0.0822 µM (active) in the assay on P388/ADR, > 1.91 µM (inactive) in the assay with SN12K1 and 0.107 µM (active) with P388.

As for `CC(=O)NC(Cc1ccsc1)C(=O)O` (centres undefined), the GI50 in the assay with P388/ADR, with SN12K1 and in the assay with P388 was > 100 µM (inactive) each time.

In the case of `COc1cc(/N=N\c2cccc(S(=O)(=O)O)c2)c(C)cc1/N=N\c1ccc(/C=C/c2ccc(/N=[N+](/[O-])c3ccc(/C=C/c4ccc(/N=N\c5cc(C)c(/N=N/c6cccc(S(=O)(=O)O)c6)cc5OC)cc4)c(S(=O)(=O)O)c3)cc2S(=O)(=O)O)cc1`, the GI50 with SN12K1 and with P388 was > 100 µM (inactive) throughout.

As to `CCN(CC)c1ccc2cc(C(=O)Nc3ccc4[nH]c(C(=O)N5C[C@@H](CCl)c6c5cc(OC(=O)Nc5ccccc5)c5[nH]cc(C)c65)cc4c3)oc2c1` [CARZELESIN], the values for the GI50 with P388/ADR, in the assay on SN12K1 and in the assay on P388 were 259 µM (inactive), 0.00016 µM (active) and 8.38e-05 µM (active), respectively.

On to `CC1=C2C(=CO[C@H](C)[C@H]2C)C(O)=C(C(=O)O)C1=O` [CITRININ], for which the GI50 in the assay with P388/ADR is 11.5 µM (inactive); with SN12K1, 15.3 µM (inactive); with P388 it was 17 µM (inactive).

Take `C[C@]12C=CC(=O)C=C1CC[C@@H]1[C@@H]2CC[C@]2(C)OC(=O)CC[C@@H]12` [TESTOLACTONE]: the GI50 in the assay with P388/ADR was 161 µM (inactive); in the assay on SN12K1, 458 µM (inactive); with P388 it was 162 µM (inactive).

The values are drawn from ChEMBL document CHEMBL1201862, “PubChem BioAssay data set” (2004).
